Test results from patent US9890185B2, “Urea derivatives useful as kinase inhibitors” (Respivert Limited, priority 2013, dated 2018).
Like-named read-outs stand apart in the source and are kept apart here. Each block holds one compound with its values, some of them ahead of it.

How the values were obtained:
GSK 3α = GSK 3α (Homo sapiens (Human), UniProt P49840); test: GSK 3α enzyme inhibition (FRET, Z-LYTE, Method 2); assay type: biochemical; conditions: read-out: IC50 Values for Enzyme Inhibition, GSK3α
How it was run: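 Phosphorylation of a dual-labelled synthetic peptide by human GSK3α is read as a coumarin/fluorescein ratio after protease development. Compound stocks run 4 to 0.004 μg/mL, and ATP stock is 40 μM.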

PBMCs = test: LPS-induced IL-8 release in PBMC cells (assay b); assay type: cell-based, human; conditions: LPS-stimulated PBMCs, read-out: IC50 Values for Inhibition of Cytokine Release, PBMCs IL-8
How it was run: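 Human PBMCs from healthy donors, isolated by density gradient, were pretreated with compound for 2 h and then stimulated with 1 ng/mL LPS (E. coli 0111:B4) for 24 h at 37° C, 5% CO2. Supernatant IL-8 and TNFα were measured by sandwich ELISA, and IC50 was taken from the dose-response curve.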

Syk = Syk (Homo sapiens (Human), UniProt P43405); test: Syk enzyme inhibition (FRET, Z-LYTE); assay type: biochemical
Protocol: (§1) The enzyme inhibitory activities of compounds disclosed herein are determined by FRET using synthetic peptides labelled with both donor and acceptor fluorophores (Z-LYTE, Invitrogen Ltd., Paisley, UK).
(§2) The inhibitory activities of compounds of the invention against c-Src and Syk enzymes (Invitrogen), are evaluated in a similar fashion to that described hereinabove. The relevant enzyme (3000 ng/mL or 2000 ng/mL respectively, 2.5 μL) is incubated with the test compound (either 4 μg/mL, 0.4 μg/mL, 0.04 μg/mL, or 0.004 μg/mL, 2.5 μL each) for 2 hr at RT. The FRET peptides (8 μM, 2.5 μL), and appropriate ATP solutions (2.5 μL, 800 μM for c-Src, and 60 μM ATP for Syk) are then added to the enzymes/compound mixtures and incubated for 1 hr. Development reagent (protease, 5 μL) is added for 1 hr prior to detection in a fluorescence microplate reader (Varioskan® Flash, ThermoFisher Scientific).
(§3) In all cases, the site-specific protease cleaves non-phosphorylated peptide only and eliminates the FRET signal. Phosphorylation levels of each reaction are calculated using the ratio of coumarin emission (donor) over fluorescein emission (acceptor), for which high ratios indicate high phosphorylation and low ratios indicate low phosphorylation levels. The percentage inhibition of each reaction is calculated relative to non-inhibited control and the 50% inhibitory concentration (IC50 value) is then calculated from the concentration-response curve.

c-Src = c-Src (Homo sapiens (Human), UniProt P12931); test: c-Src enzyme inhibition (FRET, Z-LYTE); assay type: biochemical
Protocol: as §1, §2, §3

d-U937 cells = test: Accumulation of β catenin in d-U937 cells (assay m); assay type: cell-based, human; conditions: percentage relative to Reference Compound at 1 μg/mL
Protocol: U937 cells, a human monocytic cell line, are differentiated into macrophage-type cells by incubation with PMA; (100 ng/mL) for between 48 to 72 hr. The cells are then incubated with either final concentrations of test compound or vehicle for 18 hr. The induction of β-catenin by the test compounds is stopped by replacing the media with 4% formaldehyde solution. Endogenous peroxide activity is neutralised by incubating with quenching buffer (100 μL, 0.1% sodium azide, 1% H2O2 in PBS with 0.05% Tween-20) for 20 min. The cells are washed with washing buffer (200 μL; PBS containing 0.05% Tween-20) and incubated with blocking solution (200 μL; 5% milk in PBS) for 1 hr, re-washed with washing buffer (200 μL) and then incubated overnight with anti-β-catenin antibody solution (50 μL) in 1% BSA/PBS (BD, Oxford, UK).
After washing with washing buffer (3×200 μL; PBS containing 0.05% Tween-20), cells are incubated with an HRP-conjugated secondary antibody solution (100 μL) in 1% BSA/PBS (Dako, Cambridge, UK) and the resultant signal is determined colourimetrically (OD: 450 nm with a reference wavelength of 655 nm) using TMB substrate (50 μL; R&D Systems, Abingdon, UK). This reaction is stopped by addition of 1N H2SO4 solution (50 μL). Cells are then washed with washing buffer and 2% crystal violet solution (50 μL) is applied for 30 min. After washing with washing buffer (3×200 μL), 1% SDS (100 μL) is added to each well and the plates are shaken lightly for 1 hr prior to measuring the absorbance at 595 nm (Varioskan® Flash, Thermo-Fisher Scientific).
The measured OD450-655 readings are corrected for cell number by dividing the OD450-655 by the OD595 readings.

[1] = biological target: p38 MAPKα isoform (MAPK14) (Homo sapiens (Human), UniProt Q16539); test: p38 MAPKα enzyme inhibition (FRET, Z-LYTE, Method 2); assay type: biochemical
Protocol: as §1
The following two assay variants can be used for determination of p38 MAPKα inhibition.
The inhibitory activities of test compounds against the p38 MAPKα isoform (MAPK14: Invitrogen), are evaluated indirectly by determining the level of activation/phosphorylation of the down-stream molecule, MAPKAP-K2. The p38 MAPKα protein (80 ng/mL, 2.5 μL) is mixed with the test compound (2.5 μL of either 4 μg/mL, 0.4 μg/mL, 0.04 μg/mL or 0.004 μg/mL) for 2 hr at RT. […] The mixture is incubated for 1 hr at RT. Development reagent (protease, 5 μL) is added for 1 hr prior to detection in a fluorescence microplate reader (Varioskan® Flash, ThermoFisher Scientific).
This method follows the same steps as Method 1 above, but utilises a higher concentration of the p38 MAPKα protein (2.5 μL of 200 ng/mL protein instead of 2.5 μL of 80 ng/mL protein) for mixing with the test compound.
as §3

Sequence of c-Src (P12931 whole entry, looked up): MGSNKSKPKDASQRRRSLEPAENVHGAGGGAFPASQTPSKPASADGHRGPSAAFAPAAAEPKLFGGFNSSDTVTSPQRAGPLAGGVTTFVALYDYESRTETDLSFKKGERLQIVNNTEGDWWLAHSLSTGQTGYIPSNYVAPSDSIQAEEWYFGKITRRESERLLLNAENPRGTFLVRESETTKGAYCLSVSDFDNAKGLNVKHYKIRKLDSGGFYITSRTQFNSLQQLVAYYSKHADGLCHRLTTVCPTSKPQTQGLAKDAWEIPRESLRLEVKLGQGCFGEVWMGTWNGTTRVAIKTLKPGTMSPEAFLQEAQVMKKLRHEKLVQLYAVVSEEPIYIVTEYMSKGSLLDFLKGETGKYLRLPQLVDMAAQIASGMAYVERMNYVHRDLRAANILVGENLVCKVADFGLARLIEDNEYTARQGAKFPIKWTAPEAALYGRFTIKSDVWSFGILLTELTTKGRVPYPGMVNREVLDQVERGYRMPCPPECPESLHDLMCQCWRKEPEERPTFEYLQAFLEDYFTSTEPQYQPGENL
Sequence of GSK 3α (P49840 whole entry): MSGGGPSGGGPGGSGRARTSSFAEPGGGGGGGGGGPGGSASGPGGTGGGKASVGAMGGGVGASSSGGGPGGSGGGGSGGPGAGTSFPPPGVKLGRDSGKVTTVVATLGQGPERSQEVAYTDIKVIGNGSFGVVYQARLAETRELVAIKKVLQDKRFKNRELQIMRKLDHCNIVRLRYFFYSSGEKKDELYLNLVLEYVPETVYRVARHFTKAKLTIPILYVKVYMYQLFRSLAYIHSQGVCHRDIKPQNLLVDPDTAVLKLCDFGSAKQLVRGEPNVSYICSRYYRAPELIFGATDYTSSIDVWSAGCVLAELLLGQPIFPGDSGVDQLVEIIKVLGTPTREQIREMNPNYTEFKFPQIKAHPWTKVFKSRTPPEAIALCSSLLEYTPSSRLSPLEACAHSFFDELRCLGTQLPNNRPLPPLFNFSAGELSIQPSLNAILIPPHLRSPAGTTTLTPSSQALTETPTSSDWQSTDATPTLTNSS
Sequence of p38 MAPKα isoform (MAPK14) (Q16539 whole entry, canonical isoform): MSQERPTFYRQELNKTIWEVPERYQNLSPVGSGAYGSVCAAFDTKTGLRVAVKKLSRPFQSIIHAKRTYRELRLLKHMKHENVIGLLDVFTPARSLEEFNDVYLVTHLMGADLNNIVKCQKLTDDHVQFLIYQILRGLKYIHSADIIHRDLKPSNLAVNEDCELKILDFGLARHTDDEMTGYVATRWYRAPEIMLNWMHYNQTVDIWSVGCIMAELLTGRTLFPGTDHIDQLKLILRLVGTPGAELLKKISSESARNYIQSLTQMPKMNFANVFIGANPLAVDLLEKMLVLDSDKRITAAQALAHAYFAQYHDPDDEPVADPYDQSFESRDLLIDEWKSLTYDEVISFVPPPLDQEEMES

SMILES: COc1c(CNS(C)(=O)=O)cc(C(C)(C)C)cc1NC(=O)Nc1ccc(Oc2ccnc(Nc3ccccc3)c2)c2ccccc12 [15(aq), N-(5-(tert-butyl)-2-methoxy-3-(3-(4-((2-(phenylamino)pyridin-4-yl)oxy)naphthalen-1-yl)ureido)benzyl)methanesulfonamide]
IC50 (GSK 3α): 3.29 µM
IC50 (PBMCs; Homo sapiens, PBMC): 0.0044 µM
IC50 (Syk): 1.52 µM
IC50 (c-Src): 0.16 µM

SMILES: COc1cccc(Nc2nccc(Oc3ccc(NC(=O)Nc4cc(C(C)(C)C)cc(P(C)(C)=O)c4OC)c4ccccc34)n2)c1 [15(g), 1-(5-(tert-butyl)-3-(dimethylphosphoryl)-2-methoxyphenyl)-3-(4-((2-((3-methoxy-phenyl)amino)pyrimidin-4-yl)oxy)naphthalen-1-yl)urea]
IC50 (GSK 3α): 0.757 µM
% β-catenin induction (d-U937 cells; test compound 1 μg/mL): 15.0%
% β-catenin induction (d-U937 cells; test compound 5 μg/mL): 94.0%
% β-catenin induction (d-U937 cells; test compound 10 μg/mL): 94.0%
IC50 (PBMCs): 0.0019 µM

SMILES: COc1cc(Nc2cc(Oc3ccc(NC(=O)Nc4cc(C(C)(C)C)cc([S+](C)[O-])c4OC)c4ccccc34)ccn2)ccc1C(=O)O (centres unmarked) [79(g), 4-((4-((4-(3-(5-(tert-Butyl)-2-methoxy-3-(methylsulfinyl)phenyl)ureido)naphthalen-1-yl)oxy)pyridin-2-yl)amino)-2-methoxybenzoic acid]
IC50 (PBMCs; Homo sapiens, PBMC): 0.0053 µM
IC50 (Syk): 0.005 µM
IC50 (c-Src): 0.017 µM

SMILES: COCCOCCOCCNC(=O)c1cc(C(C)(C)C)cc(NC(=O)Nc2ccc(Oc3ccnc(Nc4cc(OC)cc(OCCOCCOCCOC)c4)n3)c3ccccc23)c1OC [Example 7, 5-(tert-Butyl)-2-methoxy-3-(3-(4-((2-((3-methoxy-5-(2-(2-(2-methoxyethoxy)ethoxy)ethoxy)-phenyl)amino)pyrimidin-4-yl)oxy)naphthalen-1-yl)ureido)-N-(2-(2-(2-methoxyethoxy)ethoxy)-ethyl)benzamide]
IC50 (GSK 3α): 1.07 µM
IC50 [1]: 0.108 µM
IC50 (PBMCs; Homo sapiens, PBMC): 0.0046 µM
IC50 (Syk): 0.057 µM

SMILES: CNC(=O)c1cc(CN2CCN(C)CC2)cc(Nc2cc(Oc3ccc(NC(=O)Nc4cc(C(C)(C)C)cc(P(C)(C)=O)c4OC)c4ccccc34)ccn2)c1 [Example 78, 3-((4-((4-(3-(5-(tert-Butyl)-3-(dimethylphosphoryl)-2-methoxyphenyl)ureido)naphthalen-1-yl)oxy)pyridin-2-yl)amino)-N-methyl-5-((4-methylpiperazin-1-yl)methyl)benzamide]
IC50 (GSK 3α): 0.773 µM
IC50 (PBMCs; Homo sapiens, PBMC): 0.023 µM

SMILES: COCC(=O)Nc1cc(Oc2ccc(NC(=O)Nc3cc(C(C)(C)C)nn3-c3ccc(C)cc3)c3ccccc23)ccn1 [Reference Compound, N-(4-(4-(3-(3-tert-butyl-1-p-tolyl-1H-pyrazol-5-yl)ureido)naphthalen-1-yloxy)pyridin-2-yl)-2-methoxyacetamide, reference compound]
% β-catenin induction (d-U937 cells; test compound 1 μg/mL): 100%

Continued, in another order:

IC50 (GSK 3α): 0.919 µM
IC50 (Syk): 0.477 µM
IC50 (c-Src): 0.061 µM
SMILES: COc1c(NC(=O)Nc2ccc(Oc3ccnc(Nc4ccccc4)n3)c3ccccc23)cc(C(C)(C)C)cc1OCP(C)(C)=O [15(d), 1-(5-(tert-butyl)-3-((dimethylphosphoryl)methoxy)-2-methoxyphenyl)-3-(4-((2-(phenylamino)pyrimidin-4-yl)oxy)naphthalen-1-yl)urea]
% β-catenin induction (d-U937 cells; test compound 1 μg/mL): 11.0%
% β-catenin induction (d-U937 cells; test compound 5 μg/mL): 92.0%
% β-catenin induction (d-U937 cells; test compound 10 μg/mL): 31.0%
IC50 (PBMCs; Homo sapiens, PBMC): 0.0062 µM

IC50 (GSK 3α): > 16.4 µM
IC50 [1]: 0.747 µM
SMILES: COc1c(NC(=O)Nc2ccc(Oc3ccnc(Nc4ccccc4)c3)c3ccccc23)cc(C(C)(C)C)cc1S(C)(=O)=O [15(m), 1-(5-(tert-butyl)-2-methoxy-3-(methylsulfonyl)phenyl)-3-(4-((2-(phenylamino)pyridin-4-yl)oxy)naphthalen-1-yl)urea]
% β-catenin induction (d-U937 cells; test compound 1 μg/mL): −3.0%
% β-catenin induction (d-U937 cells; test compound 5 μg/mL): 5.0%
% β-catenin induction (d-U937 cells; test compound 10 μg/mL): 5.0%
IC50 (PBMCs; Homo sapiens, PBMC): 0.016 µM

IC50 (GSK 3α): 1.97 µM
IC50 [1]: 0.044 µM
SMILES: COc1cc(Nc2cc(Oc3ccc(NC(=O)Nc4cc(C(C)(C)C)cc(CC(N)=O)c4OC)c4ccccc34)ccn2)cc(C(=O)NCC(CO)(CO)CO)c1 [38(al), 3-((4-((4-(3-(3-(2-Amino-2-oxoethyl)-5-(tert-butyl)-2-methoxyphenyl)ureido)naphthalen-1-yl)oxy)pyridin-2-yl)amino)-N-(3-hydroxy-2,2-bis(hydroxymethyl)propyl)-5-methoxybenzamide]
IC50 (PBMCs; Homo sapiens, PBMC): 0.0072 µM

IC50 (GSK 3α): > 12.6 µM
SMILES: CC(C)(C)c1cc(NC(=O)Nc2ccc(Oc3ccnc(Nc4ccccc4)c3)c3ccccc23)c(O)c(P(C)(C)=O)c1 [Example 39, 1-(5-(tert-Butyl)-3-(dimethylphosphoryl)-2-hydroxyphenyl)-3-(4-((2-(phenylamino)pyridin-4-yl)oxy)naphthalen-1-yl)urea]
IC50 (PBMCs; Homo sapiens, PBMC): 0.0314 µM

IC50 (GSK 3α): 4.25 µM
IC50 [1]: 0.284 µM
SMILES: COc1cc(Nc2cc(Oc3ccc(NC(=O)Nc4cc(C(C)(C)C)cc(OCC(CO)(CO)CO)c4OC)c4ccccc34)ccn2)cc(C(N)=O)c1 [Example 67, 3-((4-((4-(3-(5-(tert-Butyl)-3-(3-hydroxy-2,2-bis(hydroxymethyl)propoxy)-2-methoxyphenyl)ureido)naphthalen-1-yl)oxy)pyridin-24)amino)-5-methoxybenzamide]
IC50 (PBMCs; Homo sapiens, PBMC): 0.0056 µM

IC50 (GSK 3α): 1.23 µM
SMILES: COc1c(NC(=O)Nc2ccc(Oc3ccnc(Nc4cc(C)c5[nH]ncc5c4)n3)c3ccccc23)cc(C(C)(C)C)cc1[S+](C)[O-] (centres unmarked) [Example 74, 1-(5-(tert-Butyl)-2-methoxy-3-(methylsulfinyl)phenyl)-3-(4-((2-((7-methyl-1H-indazol-5-yl)amino)pyrimidin-4-yl)oxy)naphthalen-1-yl)urea]
IC50 (PBMCs; Homo sapiens, PBMC): 0.0016 µM

IC50 (GSK 3α): 0.07 µM
SMILES: COc1cc(Nc2cc(Oc3ccc(NC(=O)Nc4cc(C(C)(C)C)cc(P(C)(C)=O)c4OC)c4ccccc34)ccn2)ccc1C(=O)O [Example 76, 4-((4-((4-(3-(5-(tert-Butyl)-3-(dimethylphosphoryl)-2-methoxyphenyl)ureido)naphthalen-1-yl)oxy)pyridin-2-yl)amino)-2-methoxybenzoic acid]
IC50 (PBMCs; Homo sapiens, PBMC): 0.0415 µM
